Results on one molecule are retold here after patent US20250275944A1, “RELATIVE UNDERSUPPLY OF AN AMYLOID BETA AGGREGATION INHIBITOR FOR IMPROVED DETOXIFYING EFFECTS” (Galimedix Therapeutics Inc, priority 2022, published 2025).

“Also recorded” adds a separate entry of the source. Non-standard residues stand in square brackets, D forms with d. Residues, ends and D or L forms follow the SMILES beside them. Aib = CC(C)(N)C(=O)O

For one test, the target named is T1, Aβ1-42 monomers (Homo sapiens, UniProt P05067).
T1 construct: purchased American Peptide Company, Sunnyvale, CA, USA; host or cells: synthetic peptide
T1 sequence (P05067 672-713 limits assumed): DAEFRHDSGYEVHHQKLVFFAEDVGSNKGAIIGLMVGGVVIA
Put plainly: Surface Plasmon Resonance (SPR) binding of compound (1) to immobilized Aβ1-42 monomers (Biacore X100). Here is the method:
FIG. 1 Represents a graphical illustration of compound (1)'s target affinity to amyloid beta Aβ1-42 monomers using Surface Plasmon Resonance (SPR). Synthetic Aβ1-42 was used for this binding assay performed with a Biacore X100 biosensor instrument equipped with two flow cells. Aβ1-42 was covalently coupled to one flow cell of CM7 sensor chips using an amine coupling kit. HBS-EP was used as assay running buffer. The analyte compound (1) was injected over the sensor chip in concentrations ranging from 0.3 nM up to 1000 nM at a flow rate of 10 μL/min for 180 sec at 25° C. […]
The aim of this experiment was to evaluate the target affinity of compound (1) to misfolded Aβ1-42 monomers. The affinity was determined using in vitro Surface Plasmon Resonance (SPR) technology. […]
The resonance units (RUs) elicited by the compound injected into the ethanolamine control flow cell was set as reference response and subtracted from the RUs elicited by the same compound injected to the Aβ saturated flow cell. […] The dissociation equilibrium constant KD of the analyte to the immobilized Aβ was determined from the steady-state levels estimating the maximum RU Rmax and calculating the KD as the concentration of the compound that elicited one-half of the Rmax.
For orientation: Surface plasmon resonance follows binding to a sensor surface in real time, without labels.

The target in the next test is T2, oligomeric Aβ1-42 (Homo sapiens, UniProt P05067).
T2 construct: Amyloid beta Aβ1-42 has been injected into brain ventricles at a concentration that strongly suppresses LTP; host or cells: peptide solution injected into anesthetized rats
T2 sequence (P05067 672-713 limits assumed): as above
In words: In vivo LTP in anesthetized rats after i.c.v. oligomeric Aβ1-42. Details: species or system rat. Conditions: for PS amplitude 80-90 min after LTP induction: Aβ1-42 alone 138.1±4.1, vehicle 179.2±8.7. Here is the method:
FIG. 3 Represents a graphical illustration of compound (1)'s dose-dependent effects on in vivo LTP in anesthetized rats at very low concentrations. Given are normalized LTP of population spike (PS) amplitude at 80-90 min post theta burst stimulation (TBS). Compound (1) has been administered s.c. at dose of 0.08 mg/kg, 0.4 mg/kg, and 2.0 mg/kg. Amyloid beta Aβ1-42 has been injected into brain ventricles at a concentration that strongly suppresses LTP (black column). […] The aim of this experiment was to evaluate the dose-dependent effects of compound (1) on in vivo LTP in anesthetized rats at very low concentrations. Compound (1) has been administered s.c. at dose of 0.08 mg/kg, 0.4 mg/kg, and 2.0 mg/kg. Amyloid beta Aβ1-42 has been injected into brain ventricles at a concentration that strongly suppresses LTP. […] In animals subject to intracerebroventricular (i.c.v.) injection of 6 μL oligomeric Aβ1-42 solution (1.67 mM) significant deficits in LTP were observed. (FIG. 3). At the end of the recording period, 80-90 min after LTP induction, the PS amplitude following i.c.v. administration of oligomeric Aβ1-42 measured 138.1±4.1% of baseline (n=18), compared to 179.2±8.7% in PBS-injected animals (n=12). In animals subjected to i.c.v injection of 6 μL oligomeric Aβ1-42, 3 different s.c. doses of compound (1), namely 0.08, 0.4 and 2 mg/kg, were administrated before i.c.v. injection of oligomeric Aβ1-42. […] At the end of the recording period, 80-90 min after LTP induction, the PS amplitude following s.c. administration of compound (1) and i.c.v. administration of oligomeric Aβ1-42 measured 170.0±11.9% of baseline (n=7) for the 2 mg/kg dose, 174.7±16.0% of baseline (n=6) for the 0.4 mg/kg dose, and 139.6±13.1% of baseline (n=4) for the 0.08 mg/kg dose, compared to 179.2±8.7% in vehicle-treated controls (n=12) and 138.1±4.1% i.c.v. oligomeric Aβ1-42-injected animals (n=18).

Consider `CC(C)(NC(=O)[C@H](N)Cc1c[nH]c2ccccc12)C(N)=O` [compound (1), (2R)-2-amino-N-(1-carbamomyl-1-methlyethyl)-3-(1H-indol-3-yl) propanamide] (H-[dW]-[Aib]-NH2), for which, at Aβ1-42 monomers (SPR steady state, 25° C, HBS-EP, 0.3-1000 nM, n=4, read-out: KD (dissociation constant) at Aβ1-42 monomers), the Kd was determined as 2.5 ± 0.6 nM. Moreover, the “affinity to the target compared to GAL-101 (fold stronger)” value on Aβ1-42 monomers (compound (1) vs GAL-101) stood at 4 fold. For the same molecule, the results for the “effect on Aβ1-42-suppressed in vivo LTP” value on oligomeric Aβ1-42 (0.08 mg/kg s.c.), at oligomeric Aβ1-42 (0.4 mg/kg s.c.) and on oligomeric Aβ1-42 (2 mg/kg s.c.) were “loss of the pharmacological effect”, “at least as potent efficacy on LTP; also recorded: fully restored LTP signal; also recorded: brought post-TBS responses towards those observed in control animals” and “brought post-TBS responses towards those observed in control animals; also recorded: normalizes the LTP signal”, respectively. Also, the “PS amplitude 80-90 min after LTP induction” value is given as 139.6±13.1 % of baseline at oligomeric Aβ1-42 (0.08 mg/kg s.c. + i.c.v. oligomeric Aβ1-42, n=4); 174.7±16.0 % of baseline at oligomeric Aβ1-42 (0.4 mg/kg s.c. + i.c.v. oligomeric Aβ1-42, n=6); 170.0±11.9 % of baseline at oligomeric Aβ1-42 (2 mg/kg s.c. + i.c.v. oligomeric Aβ1-42, n=7).

By Kd is commonly meant a measure of binding affinity in units of concentration.
